Bounds are passed on as bounds.

In this assay the test system is HIV-1 single-round infectious reporter virus. As to the kind of experiment: microbe, parasite or virus in culture. It counts as cell-based. The settings on record: Human immunodeficiency virus 1, HeLa, 72 h, read-out: EC50 Group from Table 1. On the procedure: Virus production-Human embryonic Kidney cell line, 293T, was propagated in Dulbecco's Modified Eagle Medium (Invitrogen, Carlsbad, Calif.) containing 10% fetal Bovine serum (FBS, Sigma, St. Louis, Mo.).
Virus infection—Human epithelial cell line, HeLa, expressing the HIV-1 receptor CD4 was propagated in Dulbecco's Modified Eagle Medium (Invitrogen, Carlsbad, Calif.) containing 10% fetal Bovine serum (FBS, Sigma, St. Louis, Mo.) and supplemented with 0.2 mg/mL Geneticin (Invitrogen, Carlsbad, Calif.).
Virus-Single-round infectious reporter virus was produced by co-transfecting human embryonic Kidney 293 cells with an HIV-1 envelope DNA expression vector and a proviral cDNA containing an envelope deletion mutation and the luciferase reporter gene inserted in place of HIV-1 nef sequences (Chen et al, Ref. 41). Transfections were performed using lipofectAMINE PLUS reagent as described by the manufacturer (Invitrogen, Carlsbad, Calif.).
1. HeLa CD4 cells were plated in 96 well plates at a cell density of 1×10^4 cells per well in 100 μl Dulbecco's Modified Eagle Medium containing 10% fetal Bovine serum and incubated overnight.
2. Compound was added in a 2 μl dimethylsulfoxide solution, so that the final assay concentration would be ≦10 μM.
3. 100 μl of single-round infectious reporter virus in Dulbecco's Modified Eagle Medium was then added to the plated cells and compound at an approximate multiplicity of infection (MOI) of 0.01, resulting in a final volume of 200 μl per well.
4. Virally-infected cells were incubated at 37 degrees Celsius, in a CO2 incubator, and harvested 72 h after infection.
5. Viral infection was monitored by measuring luciferase expression from viral DNA in the infected cells using a luciferase reporter gene assay kit, as described by the manufacturer (Roche Molecular Biochemicals, Indianapolis, Ind.). Infected cell supernatants were removed and 50 μl of lysis buffer was added per well. After 15 minutes, 50 μl of freshly-reconstituted luciferase assay reagent was added per well. Luciferase activity was then quantified by measuring luminescence using a Wallac microbeta scintillation counter.
7. An EC50 provides a method for comparing the antiviral potency of the compounds of this invention. The effective concentration for fifty percent inhibition (EC50) was calculated with the Microsoft Excel Xlfit curve fitting software. For each compound, curves were generated from percent inhibition calculated at 10 different concentrations by using a four paramenter logistic model (model 205). Table 1 is the key for the data in Table 2.
For orientation: EC50 means the concentration giving half of the maximal effect. As for `COC(=O)c1ccc(F)c2c(C(=O)C(=O)N3CCN(C(=O)N(C)C)CC3)c[nH]c12` [Example 1], the EC50 lay in the range of 1000 to 5000 nM.

Consider `CNC(=O)c1ccc(F)c2c(C(=O)C(=O)N3CCN(C(=O)N(C)C)CC3)c[nH]c12` [Example 2], for which the concentration giving a half-maximal response (EC50) was < 1000 nM.

In the case of `CNC(=O)c1ccc(F)c2c(C(=O)C(=O)N3CCN(C(=S)N(C)C)CC3)c[nH]c12` [Example 3], the EC50 is < 1000 nM.

Regarding `CNC(=O)c1ccc(F)c2c(C(=O)C(=O)N3CCN(C(=O)N(C)c4ccccc4)CC3)c[nH]c12` [Example 4], the 50% effective concentration (EC50) fell in the range of 1000 to 5000 nM.

Turning to `CCN(CC)C(=O)N1CCN(C(=O)C(=O)c2c[nH]c3c(C(=O)NC)ccc(F)c23)CC1` [Example 5], the EC50 lay in the range of 1000 to 5000 nM.

In the case of `CNC(=O)c1ccc(F)c2c(C(=O)C(=O)N3CCN(C(=O)N(C(C)C)C(C)C)CC3)c[nH]c12` [Example 6], the EC50 is > 5000 nM.

`CNC(=O)c1ccc(F)c2c(C(=O)C(=O)N3CCN(C(=O)NC(C)(C)C)CC3)c[nH]c12` [Example 7]: the EC50 was > 5000 nM.

For `CCCCNC(=S)N1CCN(C(=O)C(=O)c2c[nH]c3c(C(=O)NC)ccc(F)c23)CC1` [Example 8], the EC50 was > 5000 nM.

For `CN(C)C(=O)N1CCN(C(=O)C(=O)c2c[nH]c3c(-n4cncn4)ncc(F)c23)CC1` [Example 9], the concentration giving a half-maximal response (EC50) was < 1000 nM.

For `CNC(=O)c1ccc(F)c2c(C(=O)C(=O)N3CCN(C(=O)N4CCCC4)CC3)c[nH]c12` [Example 15], the 50% effective concentration (EC50) is 1000 to 5000 nM.

The record behind these values is patent US20040063746A1, “Indole, azaindole and related heterocyclic ureido and thioureido piperazine derivatives” (priority 2002, published 2004).
